In patent US20240228987A1, “HEXOKINASE-DERIVED PEPTIDES AND THERAPEUTICAL USES THEREOF” (INSERM (INSTITUT NATIONAL DE LA SANTÉ ET DE LA RECHERCHE …, priority 2021, published 2024):
Where a SMILES comes first, the peptide text is derived from it. [ ]: non-standard residue; d: D form. Nle = CCCC[C@H](N)C(=O)O

Columns and labels:
VDAC [1] = biological target: T1, VDAC (Homo sapiens, UniProt P21796); test: in-cellulo screening assay: HEK-293 cells transfected with mitoGCaMP2, MJ-induced mitochondrial Ca2+ release through VDAC; assay type: cell-based
T1 construct: HEK-293 cells, expressing VDAC and HK; endogenous in cells; host or cells: HEK-293 (ATCC), transfected only with the Ca2+ probes mitoGCaMP2 / GCaMP2
Procedure: The activity of the designed compounds was assessed on HEK-293 cells transfected with mitoGCaMP2. 40,000 cells per well were seeded in 96-well-microplates coated with Poly-D-Lysine (reference 655946, Greiner Bio-One, France) in 200 μl of DMEM supplemented with 10% FBS and 1% PS. 24 h after seeding, cells were transfected with 50 ng of mitoGCaMP2 plasmid per well using jet-PRIME reagent (Polyplus-transfection S.A, France) according to the manufacturer's recommendations. 48 h after transfection, a first measure of fluorescence was performed using the microplate reader CLARIOstar® (BMG Labtech, France). This measurement represented the basal level of Ca2+ into the mitochondria upon transfection. After a wash with 100 μl of PBS, cells were incubated with a mixture of pre-heated (37° C.) MJ at a final concentration of 6 mM and compounds at the indicated final concentrations in PBS containing 0.1% DMSO and 5% EtOH. After 35 min in a cell incubator, a second measure of fluorescence was performed using the microplate reader CLARIOstar®. This measure represented the level of mitochondrial Ca2+ according to the peptide activity. Compounds were tested in triplicates per microplates and in three or five independent experiments for each peptide. For dose effect curves, compounds were tested in triplicates per microplates and in three independent experiments. Results are expressed as the ratio between the second and first measures and normalized to the conditions without compounds containing only PBS with 0.1% DMSO and 5% EtOH. Results are expressed as the means±SD in histogram plots and dose response curves using GraphPad Prism software (version 8.0.1).
The biological screening of the peptide is based on the ability of methyl jasmonate (MJ) to binds and detaches HK-1 from mitochondrial VDAC in a time and dose dependent manner.^16,20 For this purpose, we developed an in-cellulo screening assay in which HEK-293 cells, expressing VDAC and HK,25 were transfected with GCaMP2, a cytoplasmic Ca2+-sensing probe, or with mitoGCaMP2, the same probe addressed to mitochondrial matrix. […] MJ that removes HK from VDAC was used to induce a Ca2+ release outside mitochondria measured through a drop in mitoGCaMP2 fluorescence and an increase in GCaMP2 fluorescence in cells.

VDAC [2] = biological target: T1, VDAC; test: live imaging of HEK-293 cells transfected with mitoGCaMP2 or GCaMP2, MJ treatment; assay type: cell-based; details: peptide at 33 μM, MJ 6 mM, 30 min
Procedure: (§1) FIG. 5. Time-lapse quantification of mitoGCaMP2 (A) and GCaMP2 (B) fluorescence levels within mitochondria and within the cytosol respectively. Quantifications of fluorescence levels of HEK-293 cells transfected with mitoGCaMP2 (A) and GCaMP2 (B) probes. Control (circle) represents the fluorescence level in mitochondria when treating the cells with the diluents 0.1 DMSO and 5% EtOH used for MJ and compound solubilization. MJ was tested at 6 mM and compound 1a at 33 μM. Statistical analysis using two-way ANOVA followed by Tukeys's multiple comparison tests (N=3 independent experiments). Results are expressed as means±SEM. **p<0.01, ****p<0.0001, ns. non significant. A. U. arbitrary unit
(§2) Live imaging experiments were performed on HEK-293 cells transfected with either the mitoGCaMP2 or the GCaMP2 plasmids. 500,000 cells per well were seeded in 6-well microplate (NUNC, reference 153066, Thermo Fisher Scientific, France) in 1 ml of DMEM supplemented with 10% FBS and 1% PS. 48 h after seeding, cells were transfected with 2 μg of mitoGCaMP2 or GCaMP2 plasmids using jet-PRIME reagent according to the manufacturer's protocol. 48h after transfection, the microplates were placed under a videomicroscope equipped with a humidified chamber at 37° C. and with 5% CO2. Next, 6 mM of pre-heated MJ (37° C.) was added to the wells with or without the peptide 1a at 33 μM in 1 ml of DMEM without red phenol supplemented with 10% FBS and 1% PS, and containing 0.1% DMSO and 5% EtOH. In parallel, wells containing only 1 ml of DMEM without red phenol and with 10% FBS, 1% PS, 0.1% DMSO and 5% EtOH served as control condition. Live imaging acquisition was triggered when adding MJ with or without the peptide 1a. For the control condition, image acquisition was triggered after addition of 1 ml of DMEM without red phenol supplemented with 10% FBS and 1% PS, containing 0.1% DMSO and 5% EtOH. […] Overall, 5 ROIs per condition were analyzed using Zen software (Zen 2.3 lite, Zeiss, France) and ImageJ software (version 1.52o, NIH, USA). Results are expressed as the mean±SEM using GraphPad Prism software (version 8.0.1). […]

Schwann cells = details: cited from earlier work
HEK293 cells = test: Rhod-2 mitochondrial calcium imaging in HEK293 cells, methyl jasmonate (Example 2); assay type: cell-based; details: methyl jasmonate 6 mM, 40 minutes; 5z peptide 5 μM or AAV9 infection
Procedure: (§3) FIG. 12: AAV9 represents an efficient way to sustain anti-demyelinating peptide expression in target cells. HEK293 cells were infected with a control AAV9 or AAV9-HK peptide or not infected. Two days later cells were incubated with a fluorescent dye Rhod-2 that fluoresces with calcium in mitochondria. 15 minutes later infected cells were incubated with methyl jasmonate (6 mM) and non-infected cells were incubated with methyl jasmonate (6 mM)+5z peptide (5 μM) for 40 minutes. Pictures were taken every 5 minutes imaging Rhod-2 dye.
as §3, with “We produced an” for “FIG. 12:”, “virus expressing HK” for “represents an efficient way to sustain anti-demyelinating”, “5z (AAV9-HK peptide).” for “expression in target cells.”

VDAC [3] = test: live imaging of HEK-293 cells transfected with mitoGCaMP2 or GCaMP2, MJ treatment; assay type: cell-based; details: MJ 6 mM
Procedure: as §1, §2

VDAC [4] = biological target: T1, VDAC; test: time-lapse recording of mitochondrial calcium probe mito-GCaMP2 in HEK293 cells treated with MJ and HK1 N-terminal peptides (FIG. 3); assay type: cell-based; details: peptides at 5 microMolar, MJ 6 mM
Procedure: FIG. 3: Time-lapse recording of fluorescence intensity of the mitochondrial calcium probe in HEK293 cells treated with Methyl Jasmonate (MJ, 6 milliMolar) and Nterminal peptide of wt HK1 (HK1-Nt peptide) or Nterminal peptide of mutated HK1 (HKmut-Nt peptide). HEK 293 cells were transfected with a plasmid expressing mito-GCaMP2. 48 hours later cells were imaged using a Zeiss Axio-observer designed for live-imaging and treated with MJ (6 mM) and/or peptides at 5 microMolar. Peptide sequences: wt HK1 peptide Ac-[…]-NH2 (SEQ ID NO:90), CMT4G-mutated HK1 peptide Ac-[…]-NH2 (SEQ ID NO:91) and Control peptide Ac-[…]-NH2 (SEQ ID NO:92).

[5] = cited from earlier work

T1 sequence (P21796 2-283): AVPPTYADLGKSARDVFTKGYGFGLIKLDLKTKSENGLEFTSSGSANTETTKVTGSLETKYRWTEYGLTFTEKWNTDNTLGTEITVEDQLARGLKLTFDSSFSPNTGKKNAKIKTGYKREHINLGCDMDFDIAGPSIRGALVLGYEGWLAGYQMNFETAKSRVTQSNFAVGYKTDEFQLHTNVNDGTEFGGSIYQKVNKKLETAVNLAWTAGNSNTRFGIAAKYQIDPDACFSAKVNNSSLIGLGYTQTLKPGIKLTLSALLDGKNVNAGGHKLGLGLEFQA

Compound: CCCC[C@H](NC(C)=O)C(=O)N[C@H](C(=O)N[C@@H](C)C(=O)N[C@@H](C)C(=O)N[C@@H](CCC(N)=O)C(=O)N[C@@H](CC(C)C)C(=O)N[C@@H](CC(C)C)C(=O)N[C@@H](C)C(=O)N[C@@H](Cc1ccc(O)cc1)C(=O)N[C@@H](Cc1ccc(O)cc1)C(=O)N[C@@H](Cc1ccccc1)C(=O)N[C@H](C(=O)N[C@@H](CCC(=O)O)C(=O)N[C@@H](CC(C)C)C(=O)N[C@@H](CCCCN)C(=O)NCC(=O)N[C@@H](CCCNC(=N)N)C(=O)N[C@@H](CCCCN)C(=O)N[C@@H](CCCCN)C(=O)N[C@@H](CCCNC(=N)N)C(=O)N[C@@H](CCCNC(=N)N)C(=O)N[C@@H](CCC(N)=O)C(=O)N[C@@H](CCCNC(=N)N)C(=O)N[C@@H](CCCNC(=N)N)C(=O)N[C@@H](CCCNC(=N)N)C(=O)N1CCC[C@H]1C(=O)N1CCC[C@H]1C(=O)N[C@@H](CCC(N)=O)C(N)=O)[C@@H](C)O)[C@@H](C)CC [1a] (Ac-[Nle]IAAQLLAYYFTELKGRKKRRQRRRPPQ-NH2)
- IC50 (VDAC [1]; HEK-293 mitoGCaMP2, MJ 6 mM, 35 min, dose response, read-out: IC50 on mitochondrial Ca2+ release through VDAC): 15.6 ± 2 µM
- fluorescence change induced by MJ treatment (mitoGCaMP2 and GCaMP2) (VDAC [2]): blocked

Compound: CC/C=C\CC1C(=O)CCC1CC(=O)OC (centres unmarked) [MJ, Methyl jasmonate]
- demyelination (Schwann cells): spontaneous demyelination
- Rhod-2 fluorescence in mitochondria (HEK293 cells): decrease
- mitoGCaMP2 fluorescence (mitochondrial Ca2+) (VDAC [3]; at least 30 min): significant decrease
- GCaMP2 fluorescence (cytoplasmic Ca2+) (VDAC [3]; same timeframe): increased significantly

Compound: AQWWAYYYTEWK [5z, tested peptide also contains Tat]
- activity / affinity for VDAC on the screening assay (mitoGCaMP2 fluorescence) (VDAC [1]; compounds at 3 μM, MJ 6 mM, compared with 3c, 4d or 5x): more significant
- Rhod-2 fluorescence in mitochondria (HEK293 cells): no decrease occurred

Compound: Ac-MGQICQRESATAAEKGRKKRRQRRRPPQ-NH2 [peptide derived from the mutant HK1]
- mitochondrial calcium release following MJ treatment (VDAC [4]): no effect

Compound: Ac-MIAAQLLAYYFTELKGRKKRRQRRRPPQ-NH2
- mitochondrial calcium release following MJ treatment (VDAC [4]): able to prevent mitochondrial calcium release

Compound: GRKKRRQRRRPQ [Tat]
- half-life in serum [5]: less than 6 min
